The values below come from ChEMBL document CHEMBL1150739, “Plant antitumor agents, 26. Isolation, structure, and antitumor activity of alkaloids from Anopterus glandulosus” (1987).

≈ marks a conversion by molar mass, not a printed value.

Common to all, as to type: functional
The subject of experiment [1] is P388. The experiment is described as follows: In vivo antitumor activity against mouse P388 cells at 4.4 mg/kg relative to control.
In the next experiment the test system is KB. In words: Cytotoxicity against human KB cells. The conditions noted are these: read-out: ED50 (the source's name).
The subject of experiment [2] is P388. In words: In vivo antitumor activity against mouse P388 cells at 1.5 mg/kg relative to control.
In experiment [3] the test system is P388. The experiment is described as follows: In vivo antitumor activity against mouse P388 cells at 3.5 mg/kg relative to control.
The subject of experiment [4] is P388. In words: In vivo antitumor activity against mouse P388 cells at 6 mg/kg relative to control.
Experiment [5] has as its system P388. In words: In vivo antitumor activity against mouse P388 cells at 13 mg/kg relative to control.

What is called T/C is the ratio of treated to control. For the molecule `C=C1C[C@]23[C@H]4[C@H]1[C@@H](OC(=O)/C(C)=C/C)[C@@H](OC(=O)/C(C)=C/C)[C@H]2[C@@]12C[C@@H](O)C[C@@](C)(CN(C)[C@H]41)[C@@]2(O)[C@@H](O)[C@@H]3O`, in the experiment on P388 [1], the T/C worked out at 140%. Besides, the EC50 in the experiment on KB came out at 0.001 µg/mL (≈ 0.00179 µM).

For the molecule `C=C1C[C@]23[C@H]4[C@H]1[C@@H](OC(=O)/C(C)=C/C)[C@@H](OC(=O)c1ccccc1)[C@H]2[C@@]12C[C@@H](O)C[C@@](C)(CN(C)[C@H]41)[C@@]2(O)[C@@H](O)[C@@H]3O`, in the experiment on P388 [2], the T/C amounted to 125%. Also, in the experiment with KB, the EC50 amounted to 0.001 µg/mL (≈ 0.00173 µM).

In the experiment on P388 [3], `C=C1C[C@]23[C@H]4[C@H]1[C@@H](OC(=O)/C(C)=C/C)[C@@H](OC(=O)/C(C)=C/CO)[C@H]2[C@@]12C[C@@H](O)C[C@@](C)(CN(C)[C@H]41)[C@@]2(O)[C@@H](O)[C@@H]3O` registered a T/C of 120%. Moreover, in the experiment on KB, the EC50 is 0.05 µg/mL (≈ 0.0872 µM).

On to `C=C1C[C@@]23C[C@H](O)[C@]4(O)[C@@]5(C)C[C@H](O)C[C@@]46[C@@H]2[C@H](O)[C@H](OC(=O)/C(C)=C/C)[C@@H]1[C@H]3[C@H]6N(C)C5`, for which, in the experiment on P388 [4], the T/C worked out at 127%. Further, the EC50 with KB was 1 µg/mL (≈ 2.18 µM).

On to `C=C1C[C@@]23C[C@H](O)[C@]4(O)[C@@]5(C)C[C@H](O)C[C@@]46[C@@H]2[C@H](OC(=O)/C(C)=C/C)[C@H](OC(=O)/C(C)=C/C)[C@@H]1[C@H]3[C@H]6N(C)C5` [ANOPTERINE], for which the T/C in the experiment with P388 [5] was determined as 122%. The EC50 with KB turned out to be 0.05 µg/mL (≈ 0.0923 µM).
